How the values were obtained:
Experiment in all cases: Test D controlled growth environment herbicide test, pre- and postemergence
Format in all cases: in vivo
[1] = system: Russian thistle (Salsola kali)
Method in brief: (§1)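 Species sown in silt loam and sprayed preemergence, or grown in peat-based medium to 2–18 cm (1- to 4-leaf stage) and sprayed postemergence, with compounds in non-phytotoxic solvent plus surfactant. Visual injury scored versus controls after 14–21 d in a controlled environment, 0 (no effect) to 100 (complete control).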

[2] = system: blackgrass (Alopecurus myosuroides)
Method in brief: as §1

[3] = system: bromegrass, downy (downy bromegrass, Bromus tectorum)
Method in brief: as §1

[4] = system: buckwheat, wild (wild buckwheat, Polygonum convolvulus)
Method in brief: as §1

[5] = system: chamomile (scentless chamomile, Matricaria inodora)
Method in brief: as §1

[6] = system: field violet (Viola arvensis)
Method in brief: as §1

[7] = system: galium (catchweed bedstraw, Galium aparine)
Method in brief: as §1

kochia (Kochia scoparia) = system: kochia (Kochia scoparia)
Method in brief: as §1

[8] = system: lambsquarters (Chenopodium album)
Method in brief: as §1

[9] = system: oat, wild (wild oat, Avena fatua)
Method in brief: as §1

[10] = system: oilseed rape (Brassica napus)
Method in brief: as §1

[11] = system: pigweed (Amaranthus retroflexus)
Method in brief: as §1

[12] = system: speedwell (bird's-eye speedwell, Veronica persica)
Method in brief: as §1

[13] = Postemergence, 31 g ai/ha, scale 0 to 100 (0 no effect, 100 complete control)
[14] = Postemergence, 125 g ai/ha, visual rating on scale 0 (no effect) to 100 (complete control), 14 to 21 d
[15] = Postemergence, 250 g ai/ha, scale 0 to 100 (0 no effect, 100 complete control)
[16] = Preemergence, 62 g ai/ha, scale 0 to 100 (0 no effect, 100 complete control)
[17] = Preemergence, 125 g ai/ha, scale 0 to 100 (0 no effect, 100 complete control)
[18] = Preemergence, 250 g ai/ha, scale 0 to 100 (0 no effect, 100 complete control)
[19] = postemergence, 62 g ai/ha, scale 0 to 100, 0 no effect, 100 complete control

COc1nn(C)c(=O)c(-c2c(C)ccc3ccccc23)c1OC(=O)OC(C)C [Compound 36]
Russian Thistle plant response rating [1, 13]: 80 | Plant response rating, Russian Thistle [1, 14]: 85 | Plant response rating, Russian Thistle [1, 15]: 90 | Plant response rating (scale of 0 to 100), Russian Thistle ([1]; Preemergence, 31 g ai/ha): 0 | Plant response rating, Russian Thistle [1, 16]: 15 | Plant response rating, Russian Thistle [1, 17]: 10 | Plant response rating, Russian Thistle [1, 18]: 15 | Plant response rating, Russian Thistle [1, 19]: 85 | Blackgrass plant response rating [2, 13]: 25 | Plant response rating, Blackgrass [2, 14]: 45 | Plant response rating, Blackgrass [2, 15]: 70 | Plant response rating (scale of 0 to 100), Blackgrass ([2]; Preemergence, 31 g ai/ha): 15 | Plant response rating, Blackgrass [2, 16]: 30 | Plant response rating, Blackgrass [2, 17]: 35 | Blackgrass plant response rating [2, 18]: 50 | Plant response rating, Blackgrass [2, 19]: 35 | Bromegrass, Downy plant response rating [3, 13]: 10 | Plant response rating, Bromegrass, Downy [3, 14]: 55 | Plant response rating, Bromegrass, Downy [3, 15]: 65 | Plant response rating (scale of 0 to 100), Bromegrass, Downy ([3]; Preemergence, 31 g ai/ha): 0 | Plant response rating, Bromegrass, Downy [3, 16]: 0 | Plant response rating, Bromegrass, Downy [3, 17]: 10 | Plant response rating, Bromegrass, Downy [3, 18]: 35 | Plant response rating, Bromegrass, Downy [3, 19]: 20 | Buckwheat, Wild plant response rating [4, 13]: 100 | Plant response rating, Buckwheat, Wild [4, 14]: 100 | Plant response rating, Buckwheat, Wild [4, 15]: 100 | Plant response rating (scale of 0 to 100), Buckwheat, Wild ([4]; Preemergence, 31 g ai/ha): 0 | Plant response rating, Buckwheat, Wild [4, 16]: 0 | Plant response rating, Buckwheat, Wild [4, 17]: 10 | Plant response rating, Buckwheat, Wild [4, 18]: 10 | Plant response rating, Buckwheat, Wild [4, 19]: 100 | Chamomile plant response rating [5, 13]: 95 | Plant response rating, Chamomile [5, 14]: 100 | Plant response rating, Chamomile [5, 15]: 100 | Plant response rating, Chamomile [5, 19]: 95 | Field Violet plant response rating [6, 13]: 70 | Plant response rating, Field Violet [6, 14]: 90 | Plant response rating, Field Violet [6, 15]: 90 | Plant response rating (scale of 0 to 100), Field Violet ([6]; Preemergence, 31 g ai/ha): 15 | Plant response rating, Field Violet [6, 16]: 10 | Plant response rating, Field Violet [6, 17]: 70 | Plant response rating, Field Violet [6, 18]: 95 | Plant response rating, Field Violet [6, 19]: 85 | Galium plant response rating [7, 13]: 100 | Plant response rating, Galium [7, 14]: 100 | Plant response rating, Galium [7, 15]: 100 | Plant response rating (scale of 0 to 100), Galium ([7]; Preemergence, 31 g ai/ha): 0 | Plant response rating, Galium [7, 16]: 20 | Plant response rating, Galium [7, 17]: 75 | Plant response rating, Galium [7, 18]: 85 | Plant response rating, Galium [7, 19]: 100 | Kochia plant response rating (kochia (Kochia scoparia); [13]): 85 | Plant response rating, Kochia (kochia (Kochia scoparia); [14]): 100 | Plant response rating, Kochia (kochia (Kochia scoparia); [15]): 100 | Plant response rating (scale of 0 to 100), Kochia (kochia (Kochia scoparia); Preemergence, 31 g ai/ha): 0 | Plant response rating, Kochia (kochia (Kochia scoparia); [16]): 25 | Plant response rating, Kochia (kochia (Kochia scoparia); [17]): 45 | Plant response rating, Kochia (kochia (Kochia scoparia); [18]): 60 | Plant response rating, Kochia (kochia (Kochia scoparia); [19]): 95 | Lambsquarters plant response rating [8, 13]: 95 | Plant response rating, Lambsquarters [8, 14]: 100 | Plant response rating, Lambsquarters [8, 15]: 100 | Plant response rating (scale of 0 to 100), Lambsquarters ([8]; Preemergence, 31 g ai/ha): 75 | Plant response rating, Lambsquarters [8, 16]: 95 | Plant response rating, Lambsquarters [8, 17]: 75 | Plant response rating, Lambsquarters [8, 18]: 95 | Plant response rating, Lambsquarters [8, 19]: 95 | Oat, Wild plant response rating [9, 13]: 35 | Plant response rating, Oat, Wild [9, 14]: 85 | Plant response rating, Oat, Wild [9, 15]: 95 | Plant response rating (scale of 0 to 100), Oat, Wild ([9]; Preemergence, 31 g ai/ha): 35 | Plant response rating, Oat, Wild [9, 16]: 45 | Plant response rating, Oat, Wild [9, 17]: 75 | Plant response rating, Oat, Wild [9, 18]: 85 | Plant response rating, Oat, Wild [9, 19]: 80 | Oilseed Rape plant response rating [10, 13]: 75 | Plant response rating, Oilseed Rape [10, 14]: 95 | Plant response rating, Oilseed Rape [10, 15]: 100 | Plant response rating (scale of 0 to 100), Oilseed Rape ([10]; Preemergence, 31 g ai/ha): 0 | Plant response rating, Oilseed Rape [10, 16]: 0 | Plant response rating, Oilseed Rape [10, 17]: 55 | Plant response rating, Oilseed Rape [10, 18]: 65 | Plant response rating, Oilseed Rape [10, 19]: 85 | Pigweed plant response rating [11, 13]: 100 | Plant response rating, Pigweed [11, 14]: 100 | Plant response rating, Pigweed [11, 15]: 100 | Plant response rating (scale of 0 to 100), Pigweed ([11]; Preemergence, 31 g ai/ha): 55 | Plant response rating, Pigweed [11, 16]: 75 | Plant response rating, Pigweed [11, 17]: 100 | Plant response rating, Pigweed [11, 18]: 100 | Plant response rating, Pigweed [11, 19]: 100 | Speedwell plant response rating [12, 13]: 60 | Plant response rating, Speedwell [12, 14]: 100 | Plant response rating, Speedwell [12, 15]: 100 | Plant response rating (scale of 0 to 100), Speedwell ([12]; Preemergence, 31 g ai/ha): 95 | Plant response rating, Speedwell [12, 16]: 100 | Plant response rating, Speedwell [12, 17]: 100 | Plant response rating, Speedwell [12, 18]: 100 | Plant response rating, Speedwell [12, 19]: 90
